Data reported in patent publication US8772348B2, “Materials and methods for pest control” (priority 2009, dated 2014).
Where two headings read alike, the source gives them in different places.

How the values were obtained:
[1] = tested on: Susceptible Musca domestica; assay: Contact bioassay of emulsified concentrate formulations on filter paper discs; conditions: EC formulation on filter paper
Experimental: A commercially-available permethrin 57 g L^−1 EC (Ectiban EC 57; Universal Cooperatives, Minneapolis, Minn.) was included for comparison. Except rosalva, the 50% EC semiochemical formulations were generated by combining 500 mL AI, 430 mL canola oil (Publix, Lakeland, Fla.), 10 mL xylene, 50 mL Triton X-100 (Acros Organics Nev., Fair Lawn, N.J.) and 10 mL Agsolex-8 (International Specialty Products, Wayne, N.J.). The rosalva formulation contained all of the above-mentioned ingredients, with canola oil concentration reduced to 400 mL L^−1, Triton X-100 concentration increased to 75 mL L^−1, and 5 mL L^−1 Antifoam B silicone emulsion (Mallinckrodt Baker, Phillipsburg, N.Y.) included.
Briefly, Whatman No. 1 filter paper discs (63.58 cm^2) are impregnated with 1.5 ml serially diluted formulations in 20 emulsified concentrates and 50 emulsified concentrates, respectively, and subsequently dried for about an hour. Then, house flies are divided into seven sets: three sets as the experiment, three sets as the positive control, and one set as the negative control. Each set consists of twenty six-to-ten-day old adult flies. […] The positive control set is exposed to paper discs impregnated with geranyl acetone, rosalva or citronellol. The negative control set is exposed to paper discs impregnated with acetone solution. Throughout the exposure periods, each set is provided with 10% sucrose solution and sufficient air circulation. Ataxic flies are considered dead. The mortality rate and the LC values are determined using the same procedures as is illustrated in Example 2.

[2] = tested on: Field-collected Musca domestica
Experimental: Briefly, one Musca domestica strain is collected from the University of Florida dairy unit in Alachua County, Florida, U.S.A. (“the Alachua strain”). The other Musca domestica strain is collected from a dairy farm in Gilchrist County, Florida, U.S.A. (“the Gilchrist strain”). Both strains are colonized adults, and are subsequently reared at 27° C. in the laboratory of the Entomology and Nematology Department, University of Florida.
The positive control is exposed to serial dilutions of permethrin. The negative control is not exposed to any chemical compound. 1 mL of insecticide was dissolved in acetone (concentrations between 0.5 and 20 mg mL^−1) in a 60 mL glass jar having a 67.86 cm^2 inside surface area (Wheaton, Millville, N.J.). Jars were allowed to dry for 1 h prior to fly introduction. Flies were held in jars for 2, 4 and 24 h, and fly mortality rate was scored at that time. Sugar water (10%) was provided in all assays, unless stated otherwise. The mortality rate is measured after a 2-hour, 4-hour, and 24-hour period. Ataxic flies are considered dead. The mortality rate and the LC values are determined using the same procedures as is illustrated in Example 2.

Aedes aegypti [3] = conditions: for LC50: On camouflage military fabric
Experimental: The mortality rate is measured after a 2-hour, 4-hour and 24-hour exposure period. Ataxic mosquitoes are considered dead.
The ability of Ae. aegypti to recover from insecticidal exposure is also investigated. After a 2-hour exposure, each set of Ae. aegypti is transferred into a separate jar. The mortality rate is measured at two time intervals: first, immediately at the transfer (2 hours after the initial exposure), and second, 22 hours after the transfer (24 hours after the initial exposure).
The mortality rate and the LC values are determined using the same procedures as is illustrated in Example 2.

Stomoxys calcitrans = tested on: Stomoxys calcitrans
Experimental: Briefly, each fly strain is divided into eight sets: three sets as the experiment, four sets as the positive control, and one set as the negative control. Flies are assayed on unpainted plywood panel boards that have been previously exposed to natural summer weather conditions for at least 10 days. […] The positive control set is treated with permethrin, geranyl acetone, rosalva or citronellol. The negative control set is treated with water. The formulation is applied at a uniform rate of 7.5 ml per 225 cm^2, sufficient to cover the entire panel without dripping. Subsequently, the treated panel boards are dried for about an hour.
In each set, 20 adult flies are placed onto the panel boards. Flies are secured with wooden embroidery hoops, covered with a coarse mesh screen cloth previously sprayed with the respective formulation. After 4 hours, flies are transferred into a clean jar. The mortality rate is measured 24 hours after the transfer, and is determined using the same procedures as are illustrated in Example 2.
Plywood panels (225 cm^2) were treated with chemicals at a rate of 1.67 mgcm^−2. Panels were treated on day 0 and held until exposure on post-treatment day. Mosquitoes were exposed to chemicals for 2 h, and mortality rate was assessed 24 h after initial exposure. Control contained formulation ingredients without semiochemicals.

Aedes aegypti [4] = conditions: for % mortality on various days following treatment: formulation on military fabric at LC99-based concentration, 2 h exposure, mortality 24 h after initial exposure
Experimental: Briefly, after mosquitoes are exposed to formulations for 2 hours at a concentration of LC99, each set is transferred into a separate glass jar, and held for another 24 hours. The mortality rate is measured with new mosquitoes on post-treatment days 2, 3, 5, 8 and 14 (Day 1 starts at 24 hours after the transfer), and is determined using the same procedures as are illustrated in Example 2.
Concentrations were generated from technical-based LC99 values obtained from a 2 h exposure period on military fabric. Fabric was treated on day 0 and was held until exposure on post-treatment day. Mosquitoes were exposed for 2 h, and mortality rate was assessed 24 h after initial exposure. Control contained formulation ingredients without semiochemicals.

[5] = tested on: Susceptible Musca domestica; conditions: for % mortality on various days following treatment: formulation on filter paper at LC99-based concentration of each compound
Experimental: Briefly, after Musca domestica is exposed to formulations for 24 hours at the LC99 concentration specific for each compound, each set of flies is transferred into a separate glass jar, and held for another 24 hours when mortality is scored. The mortality rate is measured on multiple days with new sets of flies up to 14 days (Day 1 starts at 24 hours after the transfer). The mortality rate is determined using the same procedures as is illustrated in Example 2.
Concentrations were generated from technical-based LC99 values obtained following a 24 h-exposure period on filter paper. Paper was treated on day 0 and was held until exposure on post-treatment day. Control contained formulation ingredients without semiochemicals.

[6] = Alachua strain, 2 h constant exposure
[7] = Alachua strain, 4 h constant exposure
[8] = Alachua strain, 24 h constant exposure
[9] = Gilchrist strain, 2 h constant exposure
[10] = Gilchrist strain, 4 h constant exposure
[11] = Gilchrist strain, 24 h constant exposure

`C/C=C/C(=O)C1=C(C)CCCC1(C)C` [Beta damascone, beta damascone] was tested, and the LC90 ([1]; 24 h constant exposure) was 618.12 μg cm^−2, the LC90 ([1]; 48 h constant exposure) was 516.16 μg cm^−2 and the LC90 [2, 6] was 136.39 μg cm^−2. It also gave an LC90 [2, 7] of 124.69 μg cm^−2, an LC90 [2, 8] of 47.00 μg cm^−2 and an LC90 [2, 9] of 126.00 μg cm^−2. For the same compound, the LC90 [2, 10] was 70.59 μg cm^−2, the LC90 [2, 11] was 56.21 μg cm^−2 and the mortality rate (Aedes aegypti [3]; in vivo) was about 100%. The mortality rate (Stomoxys calcitrans; in vivo) was 99-100%, the mortality rate (Aedes aegypti [4]; in vivo) was “above 90%” and the mortality rate ([5]; in vivo) was 99%.

`CC1(C)CCCC2=C1CC(C=O)CC2` (centres unmarked) [Cyclemone A, 2-naphthaldehyde, 1,2,3,4,5,6,7,8-octahydro-8,8-dimethyl] gave an LC50 ([1]; 24 h constant exposure) of 468.96 μg cm^−2, an LC90 ([1]; 24 h constant exposure) of 759.00 μg cm^−2 and an LC50 ([1]; 48 h constant exposure) of 440.04 μg cm^−2. For the same compound, the LC90 ([1]; 48 h constant exposure) was 659.92 μg cm^−2, the LC50 [2, 6] was 54.46 μg cm^−2 and the LC90 [2, 6] was 74.41 μg cm^−2. It also gave an LC50 [2, 7] of 52.60 μg cm^−2, an LC90 [2, 7] of 69.96 μg cm^−2 and an LC50 [2, 8] of 32.29 μg cm^−2. For the same compound, the LC90 [2, 8] was 51.09 μg cm^−2, the LC50 [2, 9] was 54.11 μg cm^−2 and the LC90 [2, 9] was 72.60 μg cm^−2. For the same compound, the LC50 [2, 10] was 46.52 μg cm^−2, the LC90 [2, 10] was 79.28 μg cm^−2 and the LC50 [2, 11] was 32.32 μg cm^−2. For the same compound, the LC90 [2, 11] was 51.58 μg cm^−2, the LC50 (Aedes aegypti [3]; 2 h constant exposure) was 26.03 μg cm^−2 and the LC50 (Aedes aegypti [3]; 2 h exposure then transferred, mortality 24 h after initial exposure) was 41.13 μg cm^−2. The LC50 (Aedes aegypti [3]; 4 h constant exposure) was 17.23 μg cm^−2, the mortality rate (Aedes aegypti [3]; camouflage military fabric, after a 24-hour exposure) was about 100% and the “% mortality” value (Stomoxys calcitrans; S. calcitrans, formulation on plywood panels at 1.67 mg cm^−2, mortality 24 h after) was 100.00a %. For the same compound, the “% mortality on various days following treatment” value (Aedes aegypti [4]; day 1) was 100.00a %, the “% mortality on various days following treatment” value (Aedes aegypti [4]; day 2) was 97.50a % and the “% mortality on various days following treatment” value (Aedes aegypti [4]; day 3) was 92.50a %. The “% mortality on various days following treatment” value (Aedes aegypti [4]; day 5) was 75.00a %, the “% mortality on various days following treatment” value (Aedes aegypti [4]; day 8) was 25.50ab % and the “% mortality on various days following treatment” value (Aedes aegypti [4]; day 14) was 17.50a %. The mortality rate ([5]; Day 1 and Day 2) was 99%, the “% mortality on various days following treatment” value ([5]; day 1) was 96.25a % and the “% mortality on various days following treatment” value ([5]; day 2) was 90.00a %. For the same compound, the “% mortality on various days following treatment” value ([5]; day 3) was 80.00a %, the “% mortality on various days following treatment” value ([5]; day 5) was 77.50ab % and the “% mortality on various days following treatment” value ([5]; day 7) was 78.75a %. For the same compound, the “% mortality on various days following treatment” value ([5]; day 8) was 63.75a % and the “% mortality on various days following treatment” value ([5]; day 14) was 6.25ab %.
